Laboratory results taken from the NIST ThermoML archive (doi:10.1016/j.fluid.2006.07.013).

Assay: xn = mol fraction of the nth substance listed

CC(C)COC(=O)CCCCC(=O)OCC(C)C [diisobutyl adipate] + O=C=O
Conditions	mass density [kg/m3]
294.75 K, Liquid, Volume and mass of phase, x1 = 0.11	807
295.25 K, Liquid, Volume and mass of phase, x1 = 0.039	795
298.95 K, Liquid, Volume and mass of phase, x1 = 0.11	805
302.75 K, Liquid, Volume and mass of phase, x1 = 0.096	814
304.65 K, Liquid, Volume and mass of phase, x1 = 0.11	805
305.35 K, Gas, volume and mass of phase, x1 = 0.011	702
305.75 K, Liquid, Volume and mass of phase, x1 = 0.039	764
308.85 K, Liquid, Volume and mass of phase, x1 = 0.11	791
310.35 K, Liquid, Volume and mass of phase, x1 = 0.064	793
311.05 K, Gas, volume and mass of phase, x1 = 0.011	667
311.25 K, Liquid, Volume and mass of phase, x1 = 0.161	865
311.95 K, Liquid, Volume and mass of phase, x1 = 0.592	813
312.15 K, Liquid, Volume and mass of phase, x1 = 0.282	853
314.45 K, Liquid, Volume and mass of phase, x1 = 0.11	789
316.85 K, Liquid, Volume and mass of phase, x1 = 0.039	739
322.15 K, Liquid, Volume and mass of phase, x1 = 0.096	800
322.55 K, Liquid, Volume and mass of phase, x1 = 0.11	791
323.65 K, Liquid, Volume and mass of phase, x1 = 0.282	832
329.95 K, Gas, volume and mass of phase, x1 = 0.011	639
330.75 K, Liquid, Volume and mass of phase, x1 = 0.11	766
332.65 K, Liquid, Volume and mass of phase, x1 = 0.039	732
332.75 K, Liquid, Volume and mass of phase, x1 = 0.592	829
337.45 K, Liquid, Volume and mass of phase, x1 = 0.282	821
342.05 K, Liquid, Volume and mass of phase, x1 = 0.11	756
343.35 K, Liquid, Volume and mass of phase, x1 = 0.064	762
345.25 K, Liquid, Volume and mass of phase, x1 = 0.039	702
347.35 K, Liquid, Volume and mass of phase, x1 = 0.096	768
350.15 K, Liquid, Volume and mass of phase, x1 = 0.282	810
351.35 K, Liquid, Volume and mass of phase, x1 = 0.592	819
353.25 K, Liquid, Volume and mass of phase, x1 = 0.161	791
356.25 K, Liquid, Volume and mass of phase, x1 = 0.11	740
357.45 K, Gas, volume and mass of phase, x1 = 0.011	558
357.75 K, Liquid, Volume and mass of phase, x1 = 0.039	675
360.85 K, Liquid, Volume and mass of phase, x1 = 0.064	724
363.05 K, Liquid, Volume and mass of phase, x1 = 0.282	800
366.65 K, Liquid, Volume and mass of phase, x1 = 0.039	660
369.85 K, Liquid, Volume and mass of phase, x1 = 0.096	731
370.95 K, Liquid, Volume and mass of phase, x1 = 0.592	807
371.25 K, Liquid, Volume and mass of phase, x1 = 0.11	723
371.55 K, Liquid, Volume and mass of phase, x1 = 0.282	791
376.85 K, Gas, volume and mass of phase, x1 = 0.039	638
378.45 K, Gas, volume and mass of phase, x1 = 0.011	518
380.95 K, Liquid, Volume and mass of phase, x1 = 0.161	760
381.65 K, Liquid, Volume and mass of phase, x1 = 0.064	687
383.95 K, Liquid, Volume and mass of phase, x1 = 0.282	776
391.15 K, Liquid, Volume and mass of phase, x1 = 0.592	790
392.25 K, Liquid, Volume and mass of phase, x1 = 0.096	696
400.05 K, Gas, volume and mass of phase, x1 = 0.064	655
400.55 K, Liquid, Volume and mass of phase, x1 = 0.282	760
401.45 K, Gas, volume and mass of phase, x1 = 0.039	588
401.65 K, Liquid, Volume and mass of phase, x1 = 0.11	681
404.55 K, Gas, volume and mass of phase, x1 = 0.011	471
408.05 K, Liquid, Volume and mass of phase, x1 = 0.161	721
409.85 K, Liquid, Volume and mass of phase, x1 = 0.592	777
419.65 K, Liquid, Volume and mass of phase, x1 = 0.282	740
420.05 K, Liquid, Volume and mass of phase, x1 = 0.096	651
421.25 K, Gas, volume and mass of phase, x1 = 0.064	617
421.85 K, Liquid, Volume and mass of phase, x1 = 0.161	706
423.15 K, Liquid, Volume and mass of phase, x1 = 0.592	772
423.65 K, Liquid, Volume and mass of phase, x1 = 0.11	650
424.65 K, Gas, volume and mass of phase, x1 = 0.039	541
